Assay results as given in patent US20070179060A1, “6-(Poly-substituted aryl)-4-aminopicolinates and their use as herbicides” (priority 2006, published 2007).

Key:
[1] = tested on: redroot pigweed (Amaranthus retroflexus); test: Postemergence herbicidal activity; type: in vivo; conditions: Amaranthus retroflexus, post-emergence, 336 h, post-emergent, 140 g ai/ha, after 14 days; read-out: % Control AMARE
Method: (§1) Seeds or nutlets of the desired test plant species were planted in Sun Gro MetroMix® 306 planting mixture, which typically has a pH of 6.0 to 6.8 and an organic matter content of about 30 percent, in plastic pots with a surface area of 64 square centimeters. When required to ensure good germination and healthy plants, a fungicide treatment and/or other chemical or physical treatment was applied. The plants were grown for 7-21 days in a greenhouse with an approximate 15 hour photoperiod which was maintained at about 23-29° C. during the day and 22-28° C. during the night. Nutrients and water were added on a regular basis and supplemental lighting was provided with overhead metal halide 1000-Watt lamps as necessary. The plants were employed for testing when they reached the first or second true leaf stage. […] The concentrated stock solutions obtained were diluted with 20 mL of an aqueous mixture containing acetone, water, isopropyl alcohol, DMSO, Atplus 411F crop oil concentrate, and Triton® X-155 surfactant in a 48.5:39:10:1.5:1.0:0.02 v/v ratio to obtain spray solutions containing the highest application rates. […] Compound requirements are based upon a 12 mL application volume at a rate of 187 L/ha. Formulated compounds were applied to the plant material with an overhead Mandel track sprayer equipped with a […] nozzles calibrated to deliver 187 L/ha over an application area of 0.503 square meters at a spray height of 18 inches (43 cm) above the average plant canopy height. Control plants were sprayed in the same manner with the solvent blank. The treated plants and control plants were placed in a greenhouse as described above and watered by sub-irrigation to prevent wash-off of the test compounds. […] By applying the well-accepted probit analysis as described by J. Berkson in Journal of the American Statistical […], 48, 565 (1953) and by D.

[2] = tested on: lambsquarter (Chenopodium album); test: Postemergence herbicidal activity; type: in vivo; conditions: Chenopodium album, post-emergence, 336 h, post-emergent, 140 g ai/ha, after 14 days; read-out: % Control CHEAL
Method: as §1

[3] = tested on: velvetleaf (Abutilon theophrasti); test: Postemergence herbicidal activity; type: in vivo; conditions: Abutilon theophrasti, post-emergence, 336 h, post-emergent, 140 g ai/ha, after 14 days; read-out: % Control ABUTH
Method: as §1

Molecule `COC(=O)c1nc(-c2ccc(Cl)c(C#N)c2F)cc(N)c1Cl` [Compound 2, 4-Amino-3-chloro-6-(4-chloro-3-cyano-2-fluorophenyl)pyridine-2-carboxylic acid methyl ester] has a pest or weed control at 140 g/ha [1] of 90%, a pest or weed control at 140 g/ha [2] of 80% and a pest or weed control at 140 g/ha [3] of 85%. For the same molecule, the melting point was 189 to 190 °C.
Work on `COC(=O)c1nc(-c2ccc(Cl)c(OCC(F)F)c2F)cc(N)c1Cl` [Compound 8, 4-Amino-3-chloro-6-[4-chloro-2-fluoro-3-(2,2-difluoroethoxy)phenyl]pyridine-2-carboxylic acid methyl ester] yielded a pest or weed control at 140 g/ha [1] of 100%, a pest or weed control at 140 g/ha [2] of 95% and a pest or weed control at 140 g/ha [3] of 80%. It also gave a melting point of 134 to 136 °C.
`CCOc1cc(-c2cc(N)c(Cl)c(C(=O)OC)n2)c(F)cc1Cl` [Compound 9, 4-Amino-3-chloro-6-(4-chloro-2-fluoro-5-ethoxyphenyl)pyridine-2-carboxylic acid methyl ester] showed a pest or weed control at 140 g/ha [1] of 100%, a pest or weed control at 140 g/ha [2] of 100% and a pest or weed control at 140 g/ha [3] of 85%. The melting point was 115 to 116 °C.
Molecule `COCCOc1c(Cl)ccc(-c2cc(N)c(Cl)c(C(=O)OC)n2)c1F` [Compound 11, 4-Amino-3-chloro-6-[4-chloro-2-fluoro-3-(methoxyethoxy)phenyl]pyridine-2-carboxylic acid methyl ester] has a pest or weed control at 140 g/ha [1] of 95%, a pest or weed control at 140 g/ha [2] of 80% and a pest or weed control at 140 g/ha [3] of 90%. It also gave a melting point of 89 to 90 °C.
Work on `COC(=O)c1nc(-c2ccc(Cl)c(OC)c2F)cc(NC(C)=O)c1Cl` [Compound 20, 4-Acetylamino-3-chloro-6-(4-chloro-2-fluoro-3-methoxyphenyl)pyridine-2-carboxylic acid methyl ester] yielded a melting point of 159 to 160 °C.
`COC(=O)c1nc(-c2ccc(F)c(C)c2F)cc(NC(C)=O)c1Cl` [Compound 23, 4-acetylamino-3-chloro-6-(2,4-difluoro-3-methylphenyl)-pyridine-2-carboxylic acid methyl ester] showed a melting point of 152 to 153 °C.
`COC(=O)c1nc(-c2ccc(Cl)c(C)c2Cl)cc(NC(C)=O)c1Cl` [Compound 24, 4-Acetylamino-3-chloro-6-(2,4-dichloro-3-methylphenyl)pyridine-2-carboxylic acid methyl ester] gave a melting point of 172 to 174 °C.
Work on `COC(=O)c1nc(-c2ccc(Cl)c(C(F)F)c2Cl)cc(NC(C)=O)c1Cl` [Compound 30, 4-Acetylamino-3-chloro-6-[2,4-dichloro-3-(difluoromethyl)phenyl]pyridine-2-carboxylic acid, methyl ester] yielded a pest or weed control at 140 g/ha [1] of 90%, a pest or weed control at 140 g/ha [2] of 95% and a pest or weed control at 140 g/ha [3] of 100%. The melting point was 152 to 153 °C.
Molecule `COC(=O)c1nc(-c2ccc(F)c(F)c2F)cc(NC(C)=O)c1Cl` [Compound 33, 4-Acetylamino-3-chloro-6-(2,3,4-trifluorophenyl)pyridine-2-carboxylic acid, methyl ester] has a pest or weed control at 140 g/ha [1] of 95%, a pest or weed control at 140 g/ha [2] of 90% and a pest or weed control at 140 g/ha [3] of 95%. It also gave a melting point of 169 to 171 °C.
Work on `COCOc1c(Cl)ccc(-c2cc(NC(C)=O)c(Cl)c(C(=O)OC)n2)c1F` [Compound 34, 4-Acetylamino-3-chloro-6-(4-chloro-2-fluoro-3-methoxymethoxy-phenyl)pyridine-2-carboxylic acid, methyl ester] yielded a melting point of 122 to 123 °C.
`COC(=O)c1nc(-c2c(F)cc(Cl)c(OC)c2F)cc(NC(C)=O)c1Cl` [Compound 40, 4-Acetylamino-3-chloro-6-(4-chloro-2,6-difluoro-3-methoxyphenyl)pyridine-2-carboxylic acid, methyl ester] showed a pest or weed control at 140 g/ha [1] of 95%, a pest or weed control at 140 g/ha [2] of 100% and a pest or weed control at 140 g/ha [3] of 95%. For the same molecule, the melting point was 144 to 144.5 °C.
Molecule `COC(=O)c1nc(-c2ccc(F)c(C)c2F)cc(N)c1Cl` [Compound 47, 4-Amino-3-chloro-6-(2,4-difluoro-3-methylphenyl)pyridine-2-carboxylic acid methyl ester] has a pest or weed control at 140 g/ha [1] of 100%, a pest or weed control at 140 g/ha [2] of 100% and a pest or weed control at 140 g/ha [3] of 100%. It also gave a melting point of 129 to 130 °C.
With `COC(=O)c1nc(-c2ccc(F)c(F)c2F)cc(N)c1Cl` [Compound 67, 4-Amino-3-chloro-6-(2,3,4-trifluorophenyl)pyridine-2-carboxylic acid, methyl ester] the pest or weed control at 140 g/ha [1] was 100%, the pest or weed control at 140 g/ha [2] was 100% and the pest or weed control at 140 g/ha [3] was 100%. The melting point was 163 to 164 °C.
`COCOc1c(Cl)ccc(-c2cc(N)c(Cl)c(C(=O)OC)n2)c1F` [Compound 68, 4-Amino-3-chloro-6-(4-chloro-2-fluoro-3-methoxymethoxyphenyl)pyridine-2-carboxylic acid, methyl ester] gave a pest or weed control at 140 g/ha [1] of 100%, a pest or weed control at 140 g/ha [2] of 100% and a pest or weed control at 140 g/ha [3] of 95%. The melting point was 99 °C.
Work on `COC(=O)c1nc(-c2ccc(Cl)c(OC(F)F)c2F)cc(N)c1Cl` [Compound 69, 4-Amino-3-chloro-6-(4-chloro-2-fluoro-3-difluoromethoxyphenyl)pyridine-2-carboxylic acid, methyl ester] yielded a pest or weed control at 140 g/ha [1] of 100%, a pest or weed control at 140 g/ha [2] of 100% and a pest or weed control at 140 g/ha [3] of 100%. For the same molecule, the melting point was 164 °C.
In the case of `COC(=O)c1nc(-c2ccc(C(F)F)c(OC)c2Cl)cc(N)c1Cl` [Compound 79, 4-Amino-3-chloro-6-(2-chloro-4-difluoromethyl-3-methoxyphenyl)pyridine-2-carboxylic acid, methyl ester], the pest or weed control at 140 g/ha [1] is reported as 90%, the pest or weed control at 140 g/ha [2] is reported as 100% and the pest or weed control at 140 g/ha [3] is reported as 95%. The melting point was 134 to 136 °C.
Molecule `CCOc1c(F)ccc(-c2cc(N)c(Cl)c(C(=O)OC)n2)c1F` [Compound 80, 4-Amino-3-chloro-6-(2,4-difluoro-3-ethoxyphenyl)pyridine-2-carboxylic acid, methyl ester] has a pest or weed control at 140 g/ha [1] of 100%, a pest or weed control at 140 g/ha [2] of 95% and a pest or weed control at 140 g/ha [3] of 100%. It also gave a melting point of 158 to 159 °C.
In the case of `COC(=O)c1nc(-c2ccc(Cl)c(C3CC3)c2F)cc(N)c1Cl` [Compound 81, 4-Amino-3-chloro-6-(4-chloro-3-cyclopropyl-2-fluorophenyl)pyridine-2-carboxylic acid, methyl ester], the pest or weed control at 140 g/ha [1] is reported as 100%, the pest or weed control at 140 g/ha [2] is reported as 95% and the pest or weed control at 140 g/ha [3] is reported as 100%. The melting point was 135 to 136.5 °C.
Molecule `COC(=O)c1nc(-c2sc(F)c(CF)c2Cl)cc(N)c1Cl` [Compound 85, 4-amino-3-chloro-6-(4-chloro-2-fluoro-3-fluoromethylthiophenyl)pyridine-2-carboxylic acid methyl ester] has a melting point of 104 to 105 °C.
Molecule `Cc1c(Cl)ccc(-c2cc(N)c(Cl)c(C(=O)O)n2)c1Cl` [Compound 98, 4-Amino-3-chloro-6-(2,4-dichloro-3-methylphenyl)pyridine-2-carboxylic acid] has a pest or weed control at 140 g/ha [1] of 70%, a pest or weed control at 140 g/ha [2] of 80% and a pest or weed control at 140 g/ha [3] of 90%. The melting point was 170 to 172 °C (dec.).
Work on `Nc1cc(-c2ccc(Cl)c(C(F)F)c2F)nc(C(=O)O)c1Cl` [Compound 106, 4-Amino-3-chloro-6-(4-chloro-2-fluoro-3-difluoromethylphenyl)pyridine-2-carboxylic acid] yielded a pest or weed control at 140 g/ha [1] of 100%, a pest or weed control at 140 g/ha [2] of 90% and a pest or weed control at 140 g/ha [3] of 90%. For the same molecule, the melting point was 182 to 183 °C (dec.).
For `CCOc1cc(-c2cc(N)c(Cl)c(C(=O)O)n2)c(F)cc1Cl` [Compound 109, 4-Amino-3-chloro-6-(4-chloro-2-fluoro-5-ethoxyphenyl)pyridine-2-carboxylic acid], the melting point was 178 to 179 °C (dec.).
In the case of `CCCCOc1c(Cl)ccc(-c2cc(N)c(Cl)c(C(=O)O)n2)c1F` [Compound 124, 4-Amino-3-chloro-6-(4-chloro-3-butoxy-2-fluorophenyl)pyridine-2-carboxylic acid], the melting point is reported as 157 to 158 °C (dec.).
In the case of `CCc1c(Cl)ccc(-c2cc(N)c(Cl)c(C(=O)O)n2)c1F` [Compound 128, 4-Amino-3-chloro-6-(4-chloro-3-ethyl-2-fluorophenyl)pyridine-2-carboxylic acid], the melting point is reported as 192 to 193 °C (dec.).
With `COCOc1c(Cl)ccc(-c2cc(N)c(Cl)c(C(=O)O)n2)c1F` [Compound 132, 4-Amino-3-chloro-6-(4-chloro-2-fluoro-3-methoxymethoxyphenyl)pyridine-2-carboxylic acid] the melting point was 159 °C (dec.).
